From patent US20140134735A1, “Plant Cell Differentiation Promoter” (SHISEIDO COMPANY, LTD., priority 2011, published 2014)

Assays:
[1] = test system: Peucedanum japonicum greening tissue masses; assay: Effect of KODA on differentiation from callus (greening tissue masses) in Peucedanum japonicum; format: cell-based; conditions: 1 μM KODA immersion
Protocol: Peucedanum japonicum seeds from Yonaguni Island in Okinawa Prefecture were planted in artificial soil (Metro-Mix 360, Sun Grow Horticulture Canada Ltd.) and allowed to germinate under conditions of 20° C. and a 12-hour light-dark cycle. Two months later, the seedling plants were taken out, only the above ground portion was washed well with water, and after disinfecting with 70% alcohol (10 seconds) and a 10-fold dilution of sodium hypochlorite (7 minutes), the seedling plants were rinsed four times with pure water. The petiols were cut out and a cut measuring about 5 mm in length was aseptically made therein followed by planting in MS medium (Wako Pure Chemical Industries, solidified with 0.7% agar) containing 2,4-dichlorophenoxyacetic acid (0.022 mg/L) and kinetin (10.75 mg/L) solidified with 0.7% agar. The petiols were cultured for 2 months under conditions of 25° C. and a light-dark cycle of 12 hours to grow greening tissue masses containing incomplete leaf tissue. Two months later, the greening tissue masses were immersed in 1 μM KODA (KODA treatment group) or water (control group), and placed on MS medium (solidified with 0.7% agar) to which benzyladenine (BA) was added to a concentration of 2 ppm with indoleacetic acid (IAA) to a concentration of 0.1 ppm, 0.5 ppm or 1 ppm. As can be understood from the table, although a large number of differentiated greening plant bodies were obtained from greening tissue masses immersed in KODA, only a small number of differentiated plant bodies were obtained in the control group (water) in the case of 1.0 ppm indoleacetic acid+2.0 ppm benzyladenine.

[2] = test system: Spathiphyllum embryogenic calluses; assay: Effect of KODA treatment time on differentiation from Spathiphyllum callus to adventitious embryo and germinants; format: cell-based; conditions: for Dehydrated adventitious embryo weight per flask: embryos recovered 6 weeks after planting in differentiation medium
Protocol: Cultured seedlings subcultured under conditions of 25° C. in a dark location (photosynthetic photon flux density: 5.7 μmole/m^2/sec, day length: 16 hours) in a solid medium obtained by adding 3% sucrose and 0.8% agar (Wako Pure Chemical Industries, Tokyo, Japan) to MS (Murashige and Skoog) medium placed in a flat box (internal volume: 300 ml) manufactured by Asahi Techno Glass followed by adjusting the pH to 5.8 were used as cultured Spathiphyllum seedlings (variety: Double Take).
Sucrose (3%), 2,4-dichlorophenoxyacetic acid (4 ppm), benzyladenine (BA) (0.2 ppm), casein acid hydrolysate (100 ppm) and 5 mM 2-morpholinoethanesulfonic acid monohydrate (MES) were added to MS medium solidified with 0.8% agar to obtain a medium for callus induction and growth (to be referred to as “subculture medium”, pH 5.8). Leaf sheaths were collected from the cultured seedlings during week 4 of subculturing by peeling from the stump and using a roughly 2 cm section containing the peeled portion (leaf sheath base) as an explant. The explants were then planted in a flat box containing the subculture medium (50 ml). When the seedlings were cultured for 8 weeks in a dark location at 25° C., calluses were induced at the peeled portions of the planted seedlings. Embryogenic calluses were selected by subculturing these calluses in 0.2 g/container each of subculture medium and culturing for 1 month. The embryogenic calluses were able to be maintained for 2 years while retaining adventitious embryo induction potency by subculturing to the subculture medium every 4 weeks.
0.05 g aliquots of the embryonic calluses were planted in 500 ml Erlenmeyer flasks containing 160 ml of MS liquid medium containing sucrose (1%), fructose (1.1%), BA (0.1 ppm) and MES (5 mM) (pH 5.8, to be referred to as “differentiation medium”), followed by shake culturing (80 rpm) for 6 weeks at 25° C. in a dark location (day length: 16 hours, synthetic photon flux density: 22.8 μmole/m^2/sec) to obtain adventitious embryos. 0.2 g aliquots of these adventitious embryos were implanted in MS medium containing sucrose (3%) and obtained by solidifying with agar (0.8%) (pH 5.8, to be referred to as “germination medium”) followed by culturing for 8 weeks at 25° C. in a dark location (day length: 16 hours, photosynthetic photon flux density: 5.7 μmole/m^2/sec) to cause the adventitious embryos to germinate and obtain complete plants.
Embryogenic calluses subcultured in subculture medium were subcultured in fresh subculture medium followed by dropping a 3 ppm aqueous solution of KODA onto the calluses after 1 week (7 days), 2 weeks (14 days) or 3 weeks ([…]). The cultured calluses were planted in liquid differentiation medium 3 weeks after the start of subculturing, and the differentiated adventitious embryos were recovered 6 weeks later (FIG. 1), dehydrated and weighed after dehydrating. The adventitious embryos were then planted in germination medium and the numbers of resulting germinants were counted. The number of germinants per 1 g of dehydrated adventitious embryos was calculated from the measurement results (FIG. 2). […] The effect of KODA on inducing adventitious embryos in calluses was therefore thought to be specific to the time at which it is applied.

[3] = test system: tobacco callus; assay: Effect of KODA on differentiation from tobacco callus; format: cell-based, Nicotiana tabacum; conditions: 100 μM KODA immersion
Protocol: After washing tobacco (Nicotiana tabacum) seeds with 70% ethanol, the surfaces of the seeds were sterilized for 3 minutes with 5% sodium hypochlorite and 0.05% Tween 20 followed by washing 5 times with sterilized water. After washing, the seeds were immersed in an aqueous KODA solution (100 μM) followed by planting the washed seeds on solid MS medium (Wako Pure Chemical Industries) containing 3% sucrose, 0.8% agar (Wako Pure Chemical Industries) and 2,4-dichlorophenoxyacetic acid (Kanto Chemical, 3 ppm) with kinetin (Nakarai Tesque, 0.1 ppm) and adjusted to pH 5.7 to induce calluses for 3 weeks under conditions of 25° C. and a light-dark cycle of 16 hours.
The above ground portions of the tobacco seedlings that underwent callus induction were removed, and only the root portions in which calluses were present were treated by immersing in 100 μM KODA (KODA treatment group) or water (control group) followed by inducing differentiation of the above ground portions under conditions of 25° C. and a light-dark cycle of 16 hours in solid differentiation medium obtained by adding 3% sucrose, 0.8% agar (Wako Pure Chemical Industries), […] (Nacalai Tesque, 0.2 ppm) and 6-benzyladenine (Nacalai Tesque, 2 ppm) to MS medium contained in plastic Petri dishes and adjusting to pH 5.7. Culturing in the differentiation medium was carried out by transferring to fresh differentiation medium after culturing for 2 weeks, namely for a total of 4 weeks. The resulting above ground portions were excised with a scalpel. The excised above ground portions were immersed in 100 μM aqueous KODA solution (KODA treatment group) or water (control group) followed by planting it in MS medium (100 mL) contained in culture bottles (CB-3, As One), which is prepared by adding sucrose (3%) to MS medium, and adjusting pH to 5.7, and is solidified with 0.8% agar, and then cultured for 4 weeks under conditions of 25° C. and light-dark cycle of 16 hours so as to differentiate below ground portions. […]

[4] = test system: Spathiphyllum embryogenic calluses; assay: Effect of KODA concentration on differentiation from Spathiphyllum callus to normally regenerated plant bodies; format: cell-based; conditions: 0.03, 0.3 or 3 ppm KODA dropped onto calluses; 8 weeks
Source text: Embryogenic calluses subcultured in subculture medium were planted in fresh differentiation medium followed by dropping a 0.03 ppm, 0.3 ppm or 3 ppm aqueous solution of KODA onto the calluses and recording the number of normally regenerated plant bodies 8 weeks later.

[5] = normal individuals, freeze-dried

CC/C=C\C/C=C\CC(=O)C(O)CCCCCCCC(=O)O (centres unmarked) [KODA, 9-hydroxy-10-oxo-12(Z),15(Z)-octadecadienoic acid]
No. of redifferentiated greening plant bodies ([1]; IAA (0.1 ppm) + BA (2.0 ppm)): 29 | No. of redifferentiated greening plant bodies ([1]; IAA (0.5 ppm) + BA (2.0 ppm)): 20 | No. of redifferentiated greening plant bodies ([1]; IAA (1.0 ppm) + BA (2.0 ppm)): 27 | No. of germinants per flask ([2]; 3 ppm KODA dropped 1 week after subculture): 431 | No. of germinants per flask ([2]; 3 ppm KODA dropped 2 weeks after subculture): 702 | No. of germinants per flask ([2]; 3 ppm KODA dropped 3 weeks after subculture): 578 | Dehydrated adventitious embryo weight per flask ([2]; 3 ppm aqueous KODA dropped onto calluses 1 week after subculture): 7.1 g | Dehydrated adventitious embryo weight per flask ([2]; 3 ppm aqueous KODA dropped onto calluses 2 weeks after subculture): 7.2 g | Dehydrated adventitious embryo weight per flask ([2]; 3 ppm aqueous KODA dropped onto calluses 3 weeks after subculture): 6.8 g | adventitious embryos recovered in comparison with control group (FIG. 1) ([2]; KODA treatment group, after two weeks): A large number of adventitious embryos were recovered | normal individuals among the redifferentiated individuals ([3]; control group 30%): 60% | dry weight of above ground portions versus control (FIG. 6) [3, 5]: no significant difference at a level of significance of 5% | dry weight of below ground portions versus control (FIG. 6) [3, 5]: a significant difference was confirmed at a level of significance of 5% | number of redifferentiated (normally regenerated) plant bodies versus control (FIG. 4) [4]: increase in comparison with a control group at each concentration
